Entries after “also recorded” stand apart in the source; their conditions may differ. No end group written: not given here.
Experiments:
rats = assay: Forced Swim Test (FST) in rats; assay type: in vivo, rat; conditions: acute i.p. 10^-5 M, 30 min before test
Protocol: Male Sprague-Dawley rats (Janvier, France), weighing 250-300 g were also used for the FST. Rats experienced a pretest session followed 24 h later by a test session. For both the pretest and the test sessions, conducted under low illumination (15 W), the animals were placed in a plastic cylindrical tank (50 cm high by 20 cm in diameter) filled with 40 cm deep water at 24° C. The pretest was carried out for 15 minutes and the test for 5 minutes in the same tank. The total period of immobility was analyzed during the last 4 min.

mice [1] = assay: Novelty-Suppressed Feeding test (NSF); assay type: in vivo, mouse; conditions: 4 days; spadin i.v. 10^-6 M, fluoxetine i.p. 3 mg/kg; 3 mg/kg
Protocol: NSF paradigm is a conflict test that elicits competing motivations: the drive to eat and the fear of venturing into the center of a bright arena. Latency to begin eating is used as an index of anxiety- and depression-like behavior. After 4 day treatment (saline or spadin, i.v.) and 24 hours food-deprivation, mice were presented with a food pellet placed in the center of a brightly plastic box (50×50×20 cm). Latency to begin eating was measured as previously described.

mice [2] = assay: Corticosterone assay after tube restraint stress; assay type: in vivo, mouse; conditions: 30 min after 10 min tube restraint; spadin i.p. 10^-5 M
Protocol: Mice were individually housed for at least 12 hours before blood sample collection. Serum samples, collected in the morning were obtained by retroorbital puncture before and 30 min after the end of a 10-min tube restraint. Levels of corticosterone were measured by radioimmunoassay using a commercially available kit (MP Biomedicals).

mice [3] = assay: Elevated plus-maze; assay type: in vivo, mouse; conditions: spadin i.p. 10^-5 M, diazepam i.p. 0.5 mg/kg
Description: Elevated plus-maze. The apparatus consisted of two open and two enclosed arms of the same size (45×5 cm) with walls 15 cm high. The arms, constructed of black acrylic, radiate from a common central platform (5×5 cm) to form a plus sign. Open arms were arranged opposite to one another, as were closed arms. The maze was elevated to a height of 45 cm above floor level. Each mouse was placed in the central platform facing one of the open arms. The number of entries into the open and closed arms and the time spent on the open and closed arms were recorded during a 5 min test period. Time spent in the unprotected open arms as well as the number of entries in open arms in relation to the total of arm entries are used as experimental indices of anxiety.

mice [4] = assay: Light/dark exploration; assay type: in vivo, mouse; conditions: spadin i.p. 10^-5 M, diazepam i.p. 0.5 mg/kg
Protocol: The apparatus consisted of a cage (25×40×20 cm) divided into two compartments by a black partition containing a small opening that allows mouse to move from one compartment to the other. One compartment, comprising […] of the surface area, was made of white plastic and was brightly illuminated. The adjoining smaller compartment was black and dark. Mice were placed in the white compartment and allowed to move freely between the two chambers for 5 minutes. The number of transitions between the two compartments, time spent in the white chamber, and latency to the first transition were recorded. Mice tend to avoid the white compartment. Thus the measures of exploration in this area (time and entrances) were used as experimental indices of anxiety.

CREB = assay: pCREB immunostaining in hippocampal sections; assay type: in vivo, mouse; conditions: 4 days, i.p. 10^-5 M, hippocampal SGZ
Protocol: Free floating sections were permeabilized in 0.1% Triton/PBS for 10 min and blocked with 3% goat serum/PBS for 2 hours at room temperature followed by a single wash in PBS. Sections were then incubated with the monoclonal anti-pCREB antibody (1:300, Cell Signaling Technology) overnight at 4° C. After three washes in PBS, sections were then incubated in biotinylated horse anti-rabbit IgG (Jackson ImmunoResearch, diluted 1:15000) for 2 hours at room temperature. pCREB expression was visualized by 3.3′-diaminobenzidine (DAB) staining using the VectaStain ABC kit (Biovalley). All sections were washed and mounted with Entellan. For BrdU/pCREB immunofluorescence staining, free floating sections of mice injected with BrdU were incubated with the primary antibodies, anti-rabbit pCREB (1:500, Cell Signaling Technology) and anti-mouse BrdU (1:40, Becton-Dickinson). After three washesin PBS, sections were then incubated in anti-IgGAlexa 488- or 594-coupled antibodies (Molecular Probes) for 1 h at room temperature. After drying sections in the dark boxes for 2 hours, they were mounted with Vectashield (Vector laboratories). Confocal microscopy observations were performed with the Laser Scanning Confocal Microscope (TCS SP, Leica) equipped with a DMIRBE inverted microscope, using a Plan Apo 63x/1,4 NA oil immersion objective.

TREK-1 [5] = molecular target: T1, TREK-1 (Mus musculus, UniProt P97438); assay: Whole-cell patch-clamp of native currents on β-TC3 cell line; assay type: cell-based; parameters: expressed in transfected cells; host or cells: COS-7 (DEAE-dextran transfection); conditions: 1 μM spadin; read-out: inhibition of endogenous TREK-1
T1 sequence (P97438 1-426): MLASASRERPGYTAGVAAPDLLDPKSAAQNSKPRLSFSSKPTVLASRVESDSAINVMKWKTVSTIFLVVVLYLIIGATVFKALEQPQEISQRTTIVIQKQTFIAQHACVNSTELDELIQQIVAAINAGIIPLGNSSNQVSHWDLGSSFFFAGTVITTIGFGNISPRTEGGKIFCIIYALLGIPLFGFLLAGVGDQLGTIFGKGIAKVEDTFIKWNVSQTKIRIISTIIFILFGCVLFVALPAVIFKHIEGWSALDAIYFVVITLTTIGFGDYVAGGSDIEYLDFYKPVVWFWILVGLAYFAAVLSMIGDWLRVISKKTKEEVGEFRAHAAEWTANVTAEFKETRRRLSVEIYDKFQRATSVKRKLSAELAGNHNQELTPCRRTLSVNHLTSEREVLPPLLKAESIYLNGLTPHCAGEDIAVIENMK
Protocol: Native currents elicited by these cells were recorded in the whole-cell configuration of the patch-clamp technique (as described for COS-7 cells) and in the presence of K^+ blockers.

TREK-1 [6] = molecular target: T1, TREK-1; assay: Whole-cell patch-clamp on CA3 pyramidal neurons in hippocampus brain slices; assay type: cell-based; parameters: a cellular network that endogenously expresses both TREK-1 and NTSR3/Sortilin; from tissue; host or cells: mouse hippocampal brain slices, CA3 pyramidal neurons; conditions: CA3 neurons of kcnk2-/- mice

Q: APLPRWSGPIGVSWGLR [spadin] was tested. Which “immobility time versus saline” value (rats) did it give?
A: significantly reduced immobility time; also recorded: shorter time of immobility

Q: What about the “latency to feed versus saline” value (mice [1]) of the same sequence?
A: significant decrease in latency to feed; also recorded: significantly reduced the latency to feed

Q: What about the “reduction of stress-induced increase in corticosterone levels versus saline” value (mice [2]) of the same sequence?
A: 79.5%

Q: What about the “time spent in the open arms” value (mice [3]) of the same sequence?
A: had no effect

Q: What about the “number of light/dark transitions” value (mice [4]) of the same sequence?
A: did not make more transitions

Q: And the “number of pCREB-labelled neurons versus saline” value (CREB)?
A: two-fold increase

Q: And the inhibition at 1 µM (TREK-1 [5])?
A: 36%

Q: What about the “inhibitory effect on arachidonic acid-induced current” value (TREK-1 [6]) of the same sequence?
A: totally absent

Reference: US20120322060A1, “DIAGNOSIS AND MONITORING TREATMENT OF PSYCHIATRIC DISEASES WITH SPADIN AND RELATED METHODS” (CENTRE NATIONAL DE LE RECHERCHE SCIENTIFIQUE - CNRS -, priority 2011, published 2012)
